According to the NIST ThermoML archive (doi:10.1021/je800244q):
Where “and” joins values, the source holds several entries; their conditions need not be identical. Equal entries are not always repeated. Numbers after ± are expanded uncertainties.

Legend:
[1] = Liquid; for mass density: Vibrating tube method; for speed of sound: Pulse-echo method
[2] = molar heat capacity at constant pressure; details: 101.33 kPa, Liquid, Small sample (50 mg) DSC
[3] = refractive index (Na D-line) (dimensionless); details: 298.15 K; 101.33 kPa; Liquid; Standard Abbe refractometry

CC(O)CC(C)(C)O (centres undefined) [2-methyl-2,4-pentanediol]
[1]
Details	mass density	speed of sound [m/s]
278.15 K, 101.33 kPa	932.344 ± 0.24 kg/m3	–
283.15 K, 101.33 kPa	928.795 ± 0.24 kg/m3	–
288.14 K, 100 kPa	–	1326.5 ± 2.3
288.15 K, 101.33 kPa	925.238 ± 0.24 kg/m3	1326.4 ± 1.6
291.11 K, 100 kPa	–	1317.1 ± 2.3
292.85 K, 101320 kPa	–	1675.8 ± 2.5
292.86 K, 15200 kPa	–	1382.2 ± 2.3
292.86 K, 30390 kPa	–	1443.5 ± 2.4
292.86 K, 45590 kPa	–	1499.7 ± 2.4
292.86 K, 60790 kPa	–	1551.7 ± 2.4
292.86 K, 75990 kPa	–	1600.9 ± 2.5
292.86 K, 91180 kPa	–	1646.9 ± 2.5
293.14 K, 100 kPa	–	1310.7 ± 2.3
293.15 K, 101.33 kPa	921.71 ± 0.24 kg/m3 and 921.676 ± 0.24 kg/m3	1310.7 ± 1.6
298.15 K, 100 kPa	–	1295.2 ± 2.3
298.15 K, 101.33 kPa	918.16 ± 0.24 kg/m3 and 918.11 ± 0.24 kg/m3	1295.2 ± 1.6
298.15 K, 15200 kPa	–	1366.7 ± 2.4
298.15 K, 30390 kPa	–	1428.8 ± 2.4
298.15 K, 45590 kPa	–	1485.4 ± 2.4
298.15 K, 60790 kPa	–	1538.1 ± 2.4
298.15 K, 75990 kPa	–	1587.3 ± 2.5
298.15 K, 91180 kPa	–	1634 ± 2.5
298.15 K, 101320 kPa	–	1663.4 ± 2.5
301.02 K, 100 kPa	–	1286.3 ± 2.3
303.13 K, 30390 kPa	–	1414.6 ± 2.4
303.14 K, 15200 kPa	–	1351.4 ± 2.4
303.14 K, 45590 kPa	–	1472.1 ± 2.4
303.14 K, 60790 kPa	–	1525.2 ± 2.4
303.14 K, 75990 kPa	–	1575.1 ± 2.5
303.14 K, 91180 kPa	–	1622.1 ± 2.5
303.14 K, 101320 kPa	–	1651.8 ± 2.5
303.15 K, 100 kPa	–	1279.9 ± 2.3
303.15 K, 101.33 kPa	914.59 ± 0.24 kg/m3	1279.8 ± 1.6
303.16 K, 101.33 kPa	914.548 ± 0.24 kg/m3	–
308.13 K, 15200 kPa	–	1336.9 ± 2.4
308.13 K, 30390 kPa	–	1400.8 ± 2.4
308.13 K, 45590 kPa	–	1459.2 ± 2.4
308.13 K, 60790 kPa	–	1513 ± 2.4
308.13 K, 75990 kPa	–	1563.1 ± 2.5
308.13 K, 91180 kPa	–	1610.8 ± 2.5
308.13 K, 101320 kPa	–	1640.8 ± 2.5
308.15 K, 100 kPa	–	1264.7 ± 2.3
308.15 K, 101.33 kPa	910.981 ± 0.24 kg/m3 and 911.02 ± 0.24 kg/m3	1264.7 ± 1.6
308.18 K, 100 kPa	–	1264.6 ± 2.3
313.1 K, 15200 kPa	–	1323 ± 2.3
313.1 K, 30390 kPa	–	1387.6 ± 2.4
313.1 K, 45590 kPa	–	1446.5 ± 2.4
313.1 K, 60790 kPa	–	1501 ± 2.4
313.1 K, 75990 kPa	–	1551.6 ± 2.5
313.1 K, 101320 kPa	–	1629.9 ± 2.5
313.11 K, 91180 kPa	–	1599.6 ± 2.5
313.15 K, 101.33 kPa	907.43 ± 0.24 kg/m3 and 907.411 ± 0.24 kg/m3	1249.6 ± 1.6
313.16 K, 100 kPa	–	1249.6 ± 2.3
318.15 K, 101.33 kPa	903.84 ± 0.24 kg/m3 and 903.834 ± 0.24 kg/m3	1234.7 ± 1.6
318.19 K, 100 kPa	–	1234.6 ± 2.3
318.29 K, 15200 kPa	–	1308.8 ± 2.4
318.29 K, 30390 kPa	–	1374.5 ± 2.4
318.29 K, 45590 kPa	–	1434.2 ± 2.4
318.29 K, 60790 kPa	–	1489.3 ± 2.4
318.29 K, 75990 kPa	–	1539.5 ± 2.5
318.29 K, 91180 kPa	–	1588.5 ± 2.5
318.29 K, 101320 kPa	–	1619.2 ± 2.5
323.15 K, 101.33 kPa	900.247 ± 0.24 kg/m3	–
328.16 K, 101.33 kPa	896.647 ± 0.24 kg/m3	–
333.16 K, 101.33 kPa	893.033 ± 0.24 kg/m3	–
338.15 K, 101.33 kPa	889.4 ± 0.24 kg/m3	–
343.15 K, 101.33 kPa	885.746 ± 0.24 kg/m3	–
348.15 K, 101.33 kPa	882.068 ± 0.25 kg/m3	–
353.15 K, 101.33 kPa	878.362 ± 0.25 kg/m3	–
358.15 K, 101.33 kPa	874.626 ± 0.25 kg/m3	–

[2]
Details	molar heat capacity at constant pressure [J/K/mol]
284.16 K	250.63 ± 4.3
288.14 K	254.33 ± 4.4
293.14 K	258.4 ± 4.5
298.16 K	262.4 ± 4.5
303.15 K	266.42 ± 4.6
308.15 K	270.35 ± 4.7
313.15 K	274.7 ± 4.8
318.15 K	279.12 ± 4.8
323.15 K	283.62 ± 4.9
328.15 K	288.35 ± 5
333.15 K	293.21 ± 5.1
338.15 K	298.13 ± 5.2
343.15 K	303.01 ± 5.2
348.15 K	307.95 ± 5.3
353.14 K	314.8 ± 5.5
358.16 K	318.39 ± 5.5

Details	refractive index
[3]	1.4258 ± 0.0005
